Test results from ChEMBL document CHEMBL2413072, “Synthesis and in vitro anticancer studies of novel C-2 arylidene congeners of lantadenes” (2013).

Columns and labels:
Assay type in all cases: functional
[1] = system: SR; test: Growth inhibition of human SR cells by sulforhodamine B assay
[2] = system: U-251; test: Growth inhibition of human U251 cells assessed as cell growth at 10^-8 M by sulforhodamine B assay; conditions: read-out: Activity
[3] = system: SF-295; test: Growth inhibition of human SF295 cells assessed as cell growth at 10^-8 M by sulforhodamine B assay; conditions: read-out: Activity
[4] = system: HT-29; test: Growth inhibition of human HT-29 cells assessed as cell growth at 10^-8 M by sulforhodamine B assay; conditions: read-out: Activity
[5] = system: HL-60(TB); test: Growth inhibition of human HL-60(TB) cells assessed as cell growth at 10^-8 M by sulforhodamine B assay; conditions: read-out: Activity
[6] = system: OVCAR-8; test: Growth inhibition of human OVCAR8 cells by sulforhodamine B assay
[7] = system: OVCAR-4; test: Growth inhibition of human OVCAR4 cells by sulforhodamine B assay
[8] = system: UACC-257; test: Growth inhibition of human UACC257 cells by sulforhodamine B assay
[9] = system: LOX IMVI; test: Growth inhibition of human LOXIMVI cells by sulforhodamine B assay
[10] = system: TK-10; test: Growth inhibition of human TK10 cells assessed as cell growth at 10^-4 M by sulforhodamine B assay; conditions: read-out: Activity
[11] = system: 786-0; test: Growth inhibition of human 786-0 cells assessed as cell growth at 10^-4 M by sulforhodamine B assay; conditions: read-out: Activity
[12] = system: UACC-62; test: Growth inhibition of human UACC62 cells assessed as cell growth at 10^-4 M by sulforhodamine B assay; conditions: read-out: Activity
[13] = system: SW-620; test: Growth inhibition of human SW620 cells assessed as cell growth at 10^-4 M by sulforhodamine B assay; conditions: read-out: Activity
[14] = system: NCI-H460; test: Growth inhibition of human NCI-H460 cells assessed as cell growth at 10^-4 M by sulforhodamine B assay; conditions: read-out: Activity
[15] = system: DU-145; test: Growth inhibition of human DU145 cells assessed as cell growth at 10^-6 M by sulforhodamine B assay; conditions: read-out: Activity
[16] = system: A498; test: Growth inhibition of human A498 cells assessed as cell growth at 10^-6 M by sulforhodamine B assay; conditions: read-out: Activity
[17] = system: OVCAR-8; test: Growth inhibition of human OVCAR8 cells assessed as cell growth at 10^-6 M by sulforhodamine B assay; conditions: read-out: Activity
[18] = system: OVCAR-4; test: Growth inhibition of human OVCAR4 cells assessed as cell growth at 10^-6 M by sulforhodamine B assay; conditions: read-out: Activity
[19] = system: SK-MEL-28; test: Growth inhibition of human SK-MEL-28 cells assessed as cell growth at 10^-6 M by sulforhodamine B assay; conditions: read-out: Activity
[20] = system: SK-MEL-2; test: Growth inhibition of human SK-MEL-2 cells assessed as cell growth at 10^-6 M by sulforhodamine B assay; conditions: read-out: Activity
[21] = system: SF-539; test: Growth inhibition of human SF539 cells assessed as cell growth at 10^-6 M by sulforhodamine B assay; conditions: read-out: Activity
[22] = system: SW-620; test: Growth inhibition of human SW620 cells assessed as cell growth at 10^-6 M by sulforhodamine B assay; conditions: read-out: Activity
[23] = system: KM12; test: Growth inhibition of human KM12 cells assessed as cell growth at 10^-6 M by sulforhodamine B assay; conditions: read-out: Activity
[24] = system: HT-29; test: Growth inhibition of human HT-29 cells assessed as cell growth at 10^-6 M by sulforhodamine B assay; conditions: read-out: Activity
[25] = system: HCT-116; test: Growth inhibition of human HCT116 cells assessed as cell growth at 10^-6 M by sulforhodamine B assay; conditions: read-out: Activity
[26] = Growth inhibition of human HCC2998 cells assessed as cell growth at 10^-6 M by sulforhodamine B assay; conditions: HCC 2998, read-out: Activity
[27] = system: COLO 205; test: Growth inhibition of human COLO205 cells assessed as cell growth at 10^-6 M by sulforhodamine B assay; conditions: read-out: Activity
[28] = system: CCRF-CEM; test: Growth inhibition of human CCRF-CEM cells assessed as cell growth at 10^-6 M by sulforhodamine B assay; conditions: read-out: Activity
[29] = system: MDA-MB-231; test: Growth inhibition of human MDA-MB-231 cells assessed as cell growth at 10^-7 M by sulforhodamine B assay; conditions: read-out: Activity
[30] = system: ACHN; test: Growth inhibition of human ACHN cells assessed as cell growth at 10^-7 M by sulforhodamine B assay; conditions: read-out: Activity
[31] = system: SK-OV-3; test: Growth inhibition of human SKOV3 cells assessed as cell growth at 10^-7 M by sulforhodamine B assay; conditions: read-out: Activity
[32] = Growth inhibition of human NCI-ADR-RES cells assessed as cell growth at 10^-7 M by sulforhodamine B assay; conditions: read-out: Activity
[33] = system: M14; test: Growth inhibition of human M14 cells assessed as cell growth at 10^-7 M by sulforhodamine B assay; conditions: read-out: Activity
[34] = system: Malme-3M; test: Growth inhibition of human MALME-3M cells assessed as cell growth at 10^-7 M by sulforhodamine B assay; conditions: read-out: Activity
[35] = system: LOX IMVI; test: Growth inhibition of human LOXIMVI cells assessed as cell growth at 10^-7 M by sulforhodamine B assay; conditions: read-out: Activity
[36] = system: SW-620; test: Growth inhibition of human SW620 cells assessed as cell growth at 10^-7 M by sulforhodamine B assay; conditions: read-out: Activity
[37] = system: COLO 205; test: Growth inhibition of human COLO205 cells assessed as cell growth at 10^-7 M by sulforhodamine B assay; conditions: read-out: Activity
[38] = system: NCI-H322M; test: Growth inhibition of human NCI-H322M cells assessed as cell growth at 10^-7 M by sulforhodamine B assay; conditions: read-out: Activity
[39] = system: CCRF-CEM; test: Growth inhibition of human CCRF-CEM cells assessed as cell growth at 10^-7 M by sulforhodamine B assay; conditions: read-out: Activity
[40] = system: TK-10; test: Growth inhibition of human TK10 cells assessed as cell growth at 10^-8 M by sulforhodamine B assay; conditions: read-out: Activity
[41] = system: SN12C; test: Growth inhibition of human SN12C cells assessed as cell growth at 10^-8 M by sulforhodamine B assay; conditions: read-out: Activity
[42] = system: CAKI-1; test: Growth inhibition of human CAKI-1 cells assessed as cell growth at 10^-8 M by sulforhodamine B assay; conditions: read-out: Activity
[43] = system: OVCAR-4; test: Growth inhibition of human OVCAR4 cells assessed as cell growth at 10^-8 M by sulforhodamine B assay; conditions: read-out: Activity
[44] = read-out: LC50 (the source's name)
[45] = read-out: pLC50 (the source's name) (converted)

C/C=C(/C)C(=O)O[C@@H]1CC(C)(C)C[C@H]2C3=CC[C@@H]4[C@@]5(C)CCC(=O)C(C)(C)[C@@H]5CC[C@@]4(C)[C@]3(C)CC[C@@]12C(=O)O [LANTADENE A]
GI50 ([1]; read-out: GI50): 3 µM | CC50 [1, 44]: > 100 µM | TGI ([1]; read-out: TGI): > 100 µM | GI50 ([1]; read-out: pGI50 (converted)): 3.02 µM | CC50 [1, 45]: > 100 µM | TGI ([1]; read-out: pTGI (converted)): > 100 µM | growth at 0.01 µM [2]: 98% | growth at 0.01 µM [3]: 96% | growth at 0.01 µM [4]: 99% | growth at 0.01 µM [5]: 100% | GI50 ([6]; read-out: GI50): 4.97 µM | CC50 [6, 44]: > 100 µM | TGI ([6]; read-out: TGI): > 100 µM | GI50 ([6]; read-out: pGI50 (converted)): 5.01 µM | CC50 [6, 45]: > 100 µM | TGI ([6]; read-out: pTGI (converted)): > 100 µM | GI50 ([7]; read-out: GI50): 5.64 µM | CC50 [7, 44]: > 100 µM | TGI ([7]; read-out: TGI): > 100 µM | GI50 ([7]; read-out: pGI50 (converted)): 5.62 µM | CC50 [7, 45]: > 100 µM | TGI ([7]; read-out: pTGI (converted)): > 100 µM | GI50 ([8]; read-out: GI50): 4.81 µM | CC50 [8, 44]: > 100 µM | TGI ([8]; read-out: TGI): > 100 µM | GI50 ([8]; read-out: pGI50 (converted)): 4.79 µM | CC50 [8, 45]: > 100 µM | TGI ([8]; read-out: pTGI (converted)): > 100 µM | GI50 ([9]; read-out: GI50): 7.8 µM | CC50 [9, 44]: > 100 µM | TGI ([9]; read-out: TGI): > 100 µM | GI50 ([9]; read-out: pGI50 (converted)): 7.76 µM | CC50 [9, 45]: > 100 µM | TGI ([9]; read-out: pTGI (converted)): > 100 µM | growth at 100 µM [10]: 6% | growth at 100 µM [11]: 4% | growth at 100 µM [12]: -70% | growth at 100 µM [13]: 22% | growth at 100 µM [14]: 8% | growth at 1 µM [15]: 102% | growth at 1 µM [16]: 72% | growth at 1 µM [17]: 95% | growth at 1 µM [18]: 86% | growth at 1 µM [19]: 95% | growth at 1 µM [20]: 108% | growth at 1 µM [21]: 106% | growth at 1 µM [22]: 90% | growth at 1 µM [23]: 84% | growth at 1 µM [24]: 85% | growth at 1 µM [25]: 86% | growth at 1 µM [26]: 98% | growth at 1 µM [27]: 101% | growth at 1 µM [28]: 92% | growth at 0.1 µM [29]: 101% | growth at 0.1 µM [30]: 107% | growth at 0.1 µM [31]: 114% | growth at 0.1 µM [32]: 104% | growth at 0.1 µM [33]: 91% | growth at 0.1 µM [34]: 96% | growth at 0.1 µM [35]: 95% | growth at 0.1 µM [36]: 95% | growth at 0.1 µM [37]: 110% | growth at 0.1 µM [38]: 97% | growth at 0.1 µM [39]: 97% | growth at 0.01 µM [40]: 99% | growth at 0.01 µM [41]: 97% | growth at 0.01 µM [42]: 96% | growth at 0.01 µM [43]: 95%
